Experimental data reported in PubChem BioAssay (NCI).
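Following 48 hours of exposure in 96-well plates, responses at five concentrations were used to interpolate endpoints linearly. TGI: concentration producing complete growth inhibition.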

How the values were obtained:
Test in all cases: NCI tumour cell line growth inhibition, 48 h
786-0 renal = test system: 786-0 renal
CCRF-CEM leukemia = test system: CCRF-CEM leukemia
COLO 205 colon = test system: COLO 205 colon
EKVX NSCLC = test system: EKVX NSCLC
HCC-2998 colon = test system: HCC-2998 colon
HL-60(TB) leukemia = test system: HL-60(TB) leukemia
HOP-62 NSCLC = test system: HOP-62 NSCLC
HT29 colon = test system: HT29 colon
KM12 colon = test system: KM12 colon
MDA-MB-435 = test system: MDA-MB-435
MDA-N = test system: MDA-N
MOLT-4 leukemia = test system: MOLT-4 leukemia
NCI-H23 lung = test system: NCI-H23 lung
PC-3 prostate = test system: PC-3 prostate
RPMI-8226 leukemia = test system: RPMI-8226 leukemia
RXF 393 renal = test system: RXF 393 renal
SF-268 CNS = test system: SF-268 CNS
SK-OV-3 ovarian = test system: SK-OV-3 ovarian
SN12C renal = test system: SN12C renal
UACC-257 melanoma = test system: UACC-257 melanoma

Row | SMILES | TGI (786-0 renal) [µM] | TGI (CCRF-CEM leukemia) [µM] | TGI (COLO 205 colon) [µM] | TGI (EKVX NSCLC) [µM] | TGI (HCC-2998 colon) [µM] | TGI (HL-60(TB) leukemia) [µM] | TGI (HOP-62 NSCLC) [µM] | TGI (HT29 colon) [µM] | TGI (KM12 colon) [µM] | TGI (MDA-MB-435) [µM] | TGI (MDA-N) [µM] | TGI (MOLT-4 leukemia) [µM] | TGI (NCI-H23 lung) [µM] | TGI (PC-3 prostate) [µM] | TGI (RPMI-8226 leukemia) [µM] | TGI (RXF 393 renal) [µM] | TGI (SF-268 CNS) [µM] | TGI (SK-OV-3 ovarian) [µM] | TGI (SN12C renal) [µM] | TGI (UACC-257 melanoma) [µM]
1 | CCOC(=O)OC1C(Br)C2CCC1(C)C2(C)C (stereo not given) | 28.8 | 17.3 | 26.2 | 29.4 | 25.1 | 20.1 | 31.2 | 18.6 | 28.4 | 23.6 | 28.5 | 16.6 | 31.9 | 23.6 | 20.7 | 25.1 | 29.6 | 29.5 | 28.1 | 29.5
2 | COC(=O)c1c(O)ccc2c1c1c(n2Cc2ccccc2OC)C(=O)c2ccccc2C1=O | 24 | 17.7 | 3.31 | 45 | 15.7 | 18.3 | 27.8 | 21.3 | 23.4 | 27.7 | 37.9 | 1.42 | 34.8 | 24.5 | 10.5 | 30.7 | 29.7 | 53.7 | 25.4 | 55.1
3 | O=S(=O)(O)c1ccc2c(N=Nc3ccc(S(=O)(=O)O)c4ccccc34)c(O)c(S(=O)(=O)O)cc2c1 | > 100 | > 100 | > 100 | > 100 | > 100 | > 100 | > 100 | > 100 | > 100 | > 100 | > 100 | > 100 | > 100 | > 100 | > 100 | > 100 | > 100 | > 100 | > 100 | > 100
4 | Nc1cccc(OCC2CCCN3CCCCC23)c1 (stereo not given) | 29.6 | 34.4 | 36.8 | 31.7 | 30 | 39.7 | 36.1 | 25.1 | 32.4 | 40.2 | 30.8 | 39.2 | 34.3 | 37.7 | 33.1 | 42.7 | 36.2 | > 100 | 33.6 | 34.3
